According to ChEMBL document CHEMBL4304811, “Development of a Water-Soluble Indolylmaleimide Derivative IM-93 Showing Dual Inhibition of Ferroptosis and NETosis” (ACS Med Chem Lett, 2019):

Columns and labels:
[1] = target: Ephrin type-B receptor 3 (Homo sapiens) (UniProt P54753); experiment: Binding affinity to wild-type human partial length EPHB3 (Q599 to T928 residues) expressed in bacterial expression system assessed as residual binding level at 10 uM by Kinomescan method relative to control
[2] = target: Calcium/calmodulin-dependent protein kinase type IV (Homo sapiens) (UniProt Q16566); experiment: Binding affinity to wild-type human partial length CAMK4 (A22 to A322 residues) expressed in bacterial expression system assessed as residual binding level at 10 uM by Kinomescan method relative to control
[3] = target: Uncharacterized serine/threonine-protein kinase SBK3 (Homo sapiens) (UniProt P0C264); experiment: Binding affinity to wild-type human partial length SgK110 (L22 to R329 residues) expressed in bacterial expression system assessed as residual binding level at 10 uM by Kinomescan method relative to control
[4] = target: Serine/threonine-protein kinase D1 (Homo sapiens) (UniProt Q15139); experiment: Binding affinity to wild-type human partial length PRKD1 (G551 to E870 residues) expressed in bacterial expression system assessed as residual binding level at 10 uM by Kinomescan method relative to control
[5] = target: Mitogen-activated protein kinase kinase kinase 20 (Homo sapiens) (UniProt Q9NYL2); experiment: Binding affinity to wild-type human partial length ZAK (M1 to L331 residues) expressed in bacterial expression system assessed as residual binding level at 10 uM by Kinomescan method relative to control
[6] = target: Mitogen-activated protein kinase kinase kinase kinase 1 (Homo sapiens) (UniProt Q92918); experiment: Binding affinity to wild-type human full length HPK1 (M1 to R799 residues) expressed in bacterial expression system assessed as residual binding level at 10 uM by Kinomescan method relative to control
[7] = target: Ephrin type-A receptor 8 (Homo sapiens) (UniProt P29322); experiment: Binding affinity to wild-type human partial length EPHA8 (Q608 to C920 residues) expressed in bacterial expression system assessed as residual binding level at 10 uM by Kinomescan method relative to control
[8] = target: Cyclin-dependent kinase 3 (Homo sapiens) (UniProt Q00526); experiment: Binding affinity to wild-type human full length CDK3 (M1 to H305 residues) expressed in bacterial expression system assessed as residual binding level at 10 uM by Kinomescan method relative to control
[9] = target: Wee1-like protein kinase 2 (Homo sapiens) (UniProt P0C1S8); experiment: Binding affinity to wild-type human partial length WEE2 (M204 to K492 residues) expressed in bacterial expression system assessed as residual binding level at 10 uM by Kinomescan method relative to control
[10] = target: Ribosomal protein S6 kinase alpha-1 (Homo sapiens) (UniProt Q15418); experiment: Binding affinity to wild-type human partial length N-terminal RSK1 Kinase domain 1 (M1 to E388 residues) expressed in bacterial expression system assessed as residual binding level at 10 uM by Kinomescan method relative to control
[11] = system: Proto-oncogene tyrosine-protein kinase receptor Ret (Homo sapiens), P07949 [M918T]; experiment: Binding affinity to human partial length RET M918T mutant (E713 to D1014 residues) expressed in bacterial expression system assessed as residual binding level at 10 uM by Kinomescan method relative to control
[12] = system: Epidermal growth factor receptor (Homo sapiens), P00533 [G719S]; experiment: Binding affinity to human partial length EGFR G719S mutant (R669 to V1011 residues) expressed in bacterial expression system assessed as residual binding level at 10 uM by Kinomescan method relative to control
[13] = target: Phosphatidylinositol 4,5-bisphosphate 3-kinase catalytic subunit beta isoform (Homo sapiens) (UniProt P42338); experiment: Binding affinity to wild-type human partial length PIK3CB (P118 to S1070 residues) expressed in mammalian expression system assessed as residual binding level at 10 uM by Kinomescan method relative to control
[14] = target: Ribosomal protein S6 kinase alpha-6 (Homo sapiens) (UniProt Q9UK32); experiment: Binding affinity to wild-type human partial length N- terminal RSK4 kinase domain 1 (M1 to E397 residues) expressed in mammalian expression system assessed as residual binding level at 10 uM by Kinomescan method relative to control
[15] = target: Rho-associated protein kinase 2 (Homo sapiens) (UniProt O75116); experiment: Binding affinity to wild-type human partial length ROCK2 (M1 to T431 residues) expressed in mammalian expression system assessed as residual binding level at 10 uM by Kinomescan method relative to control
[16] = target: Protein kinase C eta type (Homo sapiens) (UniProt P24723); experiment: Binding affinity to wild-type human partial length PRKCH (S324 to P683 residues) expressed in bacterial expression system assessed as residual binding level at 10 uM by Kinomescan method relative to control
[17] = target: Serine/threonine-protein kinase 38-like (Homo sapiens) (UniProt Q9Y2H1); experiment: Binding affinity to wild-type human partial length NDR2 (N34 to E447 residues) expressed in bacterial expression system assessed as residual binding level at 10 uM by Kinomescan method relative to control
[18] = system: Tyrosine-protein kinase ABL1 (Homo sapiens), P00519 [M351T]; experiment: Binding affinity to human phosphorylated ABL1 M351T mutant (S229 to K512 residues) expressed in mammalian expression system assessed as residual binding level at 10 uM by Kinomescan method relative to control
[19] = system: Tyrosine-protein kinase ABL1 (Homo sapiens), P00519 [F317I]; experiment: Binding affinity to human phosphorylated ABL1 F317I mutant (S229 to K512 residues) expressed in mammalian expression system assessed as residual binding level at 10 uM by Kinomescan method relative to control
[20] = system: Mast/stem cell growth factor receptor Kit (Homo sapiens), P10721 [A829P]; experiment: Binding affinity to human partial length KIT A829P mutant (I571 to D952 residues) expressed in mammalian expression system assessed as residual binding level at 10 uM by Kinomescan method relative to control
[21] = target: Myosin light chain kinase, smooth muscle (Homo sapiens) (UniProt Q15746); experiment: Binding affinity to wild-type human full length MYLK (M854 to E1845 residues) expressed in mammalian expression system assessed as residual binding level at 10 uM by Kinomescan method relative to control
[22] = target: NT-3 growth factor receptor (Homo sapiens) (UniProt Q16288); experiment: Binding affinity to wild-type human partial length TRKC (Q531 to G825 residues) expressed in mammalian expression system assessed as residual binding level at 10 uM by Kinomescan method relative to control
[23] = target: Insulin-like growth factor 1 receptor (Homo sapiens) (UniProt P08069); experiment: Binding affinity to wild-type human partial length IGF1R (L972 to D1294 residues) expressed in bacterial expression system assessed as residual binding level at 10 uM by Kinomescan method relative to control
[24] = target: Serine/threonine-protein kinase TBK1 (Homo sapiens) (UniProt Q9UHD2); experiment: Binding affinity to wild-type human full length TBK1 (M1 to L729 residues) expressed in mammalian expression system assessed as residual binding level at 10 uM by Kinomescan method relative to control

Sequence of Phosphatidylinositol 4,5-bisphosphate 3-kinase catalytic subunit beta isoform (Homo sapiens) (P42338 whole entry, looked up, the tested form may be a part, canonical isoform): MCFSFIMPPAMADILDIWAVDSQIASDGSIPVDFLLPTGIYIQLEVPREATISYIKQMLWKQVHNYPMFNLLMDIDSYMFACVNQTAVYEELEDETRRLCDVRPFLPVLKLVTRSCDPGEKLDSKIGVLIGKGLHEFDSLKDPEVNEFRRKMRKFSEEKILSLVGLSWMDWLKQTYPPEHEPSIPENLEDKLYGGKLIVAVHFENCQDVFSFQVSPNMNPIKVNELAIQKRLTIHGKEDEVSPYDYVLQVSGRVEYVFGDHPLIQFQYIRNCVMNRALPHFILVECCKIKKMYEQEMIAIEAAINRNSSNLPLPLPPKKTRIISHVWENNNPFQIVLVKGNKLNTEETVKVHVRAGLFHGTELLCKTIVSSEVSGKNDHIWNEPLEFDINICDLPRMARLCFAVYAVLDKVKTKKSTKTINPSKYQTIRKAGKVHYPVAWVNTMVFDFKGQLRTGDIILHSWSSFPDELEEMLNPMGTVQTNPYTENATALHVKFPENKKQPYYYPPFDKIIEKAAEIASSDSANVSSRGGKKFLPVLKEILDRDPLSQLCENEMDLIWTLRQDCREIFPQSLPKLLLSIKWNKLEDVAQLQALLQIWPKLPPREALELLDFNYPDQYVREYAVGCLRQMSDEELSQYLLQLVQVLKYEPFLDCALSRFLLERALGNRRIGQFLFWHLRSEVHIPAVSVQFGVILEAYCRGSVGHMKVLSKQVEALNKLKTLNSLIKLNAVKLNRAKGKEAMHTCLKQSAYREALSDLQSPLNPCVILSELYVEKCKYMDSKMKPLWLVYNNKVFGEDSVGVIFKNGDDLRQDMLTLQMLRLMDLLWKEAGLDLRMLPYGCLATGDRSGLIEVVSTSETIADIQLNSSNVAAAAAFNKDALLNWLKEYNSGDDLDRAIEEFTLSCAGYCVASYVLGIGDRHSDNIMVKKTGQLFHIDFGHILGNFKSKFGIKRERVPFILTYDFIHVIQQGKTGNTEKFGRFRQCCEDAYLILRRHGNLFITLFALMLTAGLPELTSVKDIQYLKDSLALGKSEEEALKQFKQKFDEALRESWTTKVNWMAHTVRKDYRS
Sequence of Proto-oncogene tyrosine-protein kinase receptor Ret (Homo sapiens), P07949 [M918T] (P07949 whole entry M918T, the tested form may be a part): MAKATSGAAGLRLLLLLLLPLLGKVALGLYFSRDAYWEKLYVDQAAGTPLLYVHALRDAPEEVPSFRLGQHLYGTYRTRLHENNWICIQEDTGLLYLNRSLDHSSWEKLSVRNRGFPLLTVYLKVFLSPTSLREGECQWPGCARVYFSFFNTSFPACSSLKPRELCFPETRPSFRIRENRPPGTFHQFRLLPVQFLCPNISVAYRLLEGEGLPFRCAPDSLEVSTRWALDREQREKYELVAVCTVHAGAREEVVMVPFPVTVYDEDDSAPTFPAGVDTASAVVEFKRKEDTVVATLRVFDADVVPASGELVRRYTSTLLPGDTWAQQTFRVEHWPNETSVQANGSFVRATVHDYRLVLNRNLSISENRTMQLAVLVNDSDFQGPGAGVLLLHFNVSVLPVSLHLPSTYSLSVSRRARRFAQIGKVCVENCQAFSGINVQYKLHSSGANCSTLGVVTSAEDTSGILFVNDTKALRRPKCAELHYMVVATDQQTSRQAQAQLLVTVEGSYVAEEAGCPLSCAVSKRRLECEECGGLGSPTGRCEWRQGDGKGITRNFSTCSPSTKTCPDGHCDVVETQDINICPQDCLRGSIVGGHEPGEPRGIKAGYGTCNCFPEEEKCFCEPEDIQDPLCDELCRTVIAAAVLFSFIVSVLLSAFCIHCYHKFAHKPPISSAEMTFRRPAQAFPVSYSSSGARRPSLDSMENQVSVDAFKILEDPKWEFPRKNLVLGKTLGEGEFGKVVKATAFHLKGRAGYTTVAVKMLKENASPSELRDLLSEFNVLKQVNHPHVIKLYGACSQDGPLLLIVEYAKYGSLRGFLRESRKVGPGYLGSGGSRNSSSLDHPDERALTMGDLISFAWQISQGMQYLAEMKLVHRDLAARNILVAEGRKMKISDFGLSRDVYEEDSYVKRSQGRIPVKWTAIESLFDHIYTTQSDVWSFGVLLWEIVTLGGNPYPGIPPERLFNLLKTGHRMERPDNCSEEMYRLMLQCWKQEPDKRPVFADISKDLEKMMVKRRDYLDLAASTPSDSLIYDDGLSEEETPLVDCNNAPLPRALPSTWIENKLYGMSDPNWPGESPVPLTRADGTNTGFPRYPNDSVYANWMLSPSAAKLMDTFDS
Sequence of Ribosomal protein S6 kinase alpha-6 (Homo sapiens) (Q9UK32 whole entry, the tested form may be a part): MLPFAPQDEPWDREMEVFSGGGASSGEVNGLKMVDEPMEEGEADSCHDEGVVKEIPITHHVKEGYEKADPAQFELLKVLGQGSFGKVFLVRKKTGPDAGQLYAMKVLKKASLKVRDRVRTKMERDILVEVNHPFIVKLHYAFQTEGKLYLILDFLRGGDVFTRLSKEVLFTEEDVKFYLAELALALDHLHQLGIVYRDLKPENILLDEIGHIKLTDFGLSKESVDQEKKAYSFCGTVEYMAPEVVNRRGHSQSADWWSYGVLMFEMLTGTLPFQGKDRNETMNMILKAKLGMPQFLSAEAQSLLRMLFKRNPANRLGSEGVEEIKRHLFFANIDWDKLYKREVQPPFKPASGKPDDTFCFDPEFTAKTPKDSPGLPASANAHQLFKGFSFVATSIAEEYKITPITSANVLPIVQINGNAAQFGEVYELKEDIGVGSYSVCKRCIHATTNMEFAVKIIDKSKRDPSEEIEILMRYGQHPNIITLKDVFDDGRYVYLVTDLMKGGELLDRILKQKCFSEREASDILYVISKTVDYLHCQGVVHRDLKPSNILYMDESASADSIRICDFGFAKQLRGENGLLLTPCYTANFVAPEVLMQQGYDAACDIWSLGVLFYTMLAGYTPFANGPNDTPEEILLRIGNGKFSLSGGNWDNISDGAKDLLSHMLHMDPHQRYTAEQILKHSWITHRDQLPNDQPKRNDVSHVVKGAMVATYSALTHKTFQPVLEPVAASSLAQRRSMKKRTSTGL
Sequence of Mitogen-activated protein kinase kinase kinase kinase 1 (Homo sapiens) (Q92918 whole entry, looked up, the tested form may be a part): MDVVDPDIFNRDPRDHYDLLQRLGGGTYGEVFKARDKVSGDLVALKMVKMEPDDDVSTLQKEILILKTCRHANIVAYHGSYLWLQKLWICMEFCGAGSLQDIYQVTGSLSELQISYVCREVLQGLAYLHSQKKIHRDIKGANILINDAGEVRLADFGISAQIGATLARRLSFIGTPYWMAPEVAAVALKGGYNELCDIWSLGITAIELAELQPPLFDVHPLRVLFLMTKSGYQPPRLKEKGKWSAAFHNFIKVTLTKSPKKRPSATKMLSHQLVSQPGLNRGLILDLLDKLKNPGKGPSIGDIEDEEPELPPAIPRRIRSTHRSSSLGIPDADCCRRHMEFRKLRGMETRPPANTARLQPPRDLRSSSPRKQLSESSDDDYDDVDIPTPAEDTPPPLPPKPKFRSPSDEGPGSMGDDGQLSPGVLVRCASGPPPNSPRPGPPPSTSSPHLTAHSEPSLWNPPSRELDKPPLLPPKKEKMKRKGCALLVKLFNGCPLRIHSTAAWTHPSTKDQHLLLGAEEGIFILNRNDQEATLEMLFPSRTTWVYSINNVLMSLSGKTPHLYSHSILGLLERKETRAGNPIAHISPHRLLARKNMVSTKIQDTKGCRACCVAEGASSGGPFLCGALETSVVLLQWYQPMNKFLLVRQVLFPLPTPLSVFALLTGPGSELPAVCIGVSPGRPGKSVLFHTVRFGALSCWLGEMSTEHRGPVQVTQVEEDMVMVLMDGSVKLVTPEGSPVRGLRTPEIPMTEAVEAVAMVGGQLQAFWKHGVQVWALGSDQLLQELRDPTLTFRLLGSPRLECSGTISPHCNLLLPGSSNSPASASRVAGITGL
Sequence of Ephrin type-A receptor 8 (Homo sapiens) (P29322 whole entry, the tested form may be a part): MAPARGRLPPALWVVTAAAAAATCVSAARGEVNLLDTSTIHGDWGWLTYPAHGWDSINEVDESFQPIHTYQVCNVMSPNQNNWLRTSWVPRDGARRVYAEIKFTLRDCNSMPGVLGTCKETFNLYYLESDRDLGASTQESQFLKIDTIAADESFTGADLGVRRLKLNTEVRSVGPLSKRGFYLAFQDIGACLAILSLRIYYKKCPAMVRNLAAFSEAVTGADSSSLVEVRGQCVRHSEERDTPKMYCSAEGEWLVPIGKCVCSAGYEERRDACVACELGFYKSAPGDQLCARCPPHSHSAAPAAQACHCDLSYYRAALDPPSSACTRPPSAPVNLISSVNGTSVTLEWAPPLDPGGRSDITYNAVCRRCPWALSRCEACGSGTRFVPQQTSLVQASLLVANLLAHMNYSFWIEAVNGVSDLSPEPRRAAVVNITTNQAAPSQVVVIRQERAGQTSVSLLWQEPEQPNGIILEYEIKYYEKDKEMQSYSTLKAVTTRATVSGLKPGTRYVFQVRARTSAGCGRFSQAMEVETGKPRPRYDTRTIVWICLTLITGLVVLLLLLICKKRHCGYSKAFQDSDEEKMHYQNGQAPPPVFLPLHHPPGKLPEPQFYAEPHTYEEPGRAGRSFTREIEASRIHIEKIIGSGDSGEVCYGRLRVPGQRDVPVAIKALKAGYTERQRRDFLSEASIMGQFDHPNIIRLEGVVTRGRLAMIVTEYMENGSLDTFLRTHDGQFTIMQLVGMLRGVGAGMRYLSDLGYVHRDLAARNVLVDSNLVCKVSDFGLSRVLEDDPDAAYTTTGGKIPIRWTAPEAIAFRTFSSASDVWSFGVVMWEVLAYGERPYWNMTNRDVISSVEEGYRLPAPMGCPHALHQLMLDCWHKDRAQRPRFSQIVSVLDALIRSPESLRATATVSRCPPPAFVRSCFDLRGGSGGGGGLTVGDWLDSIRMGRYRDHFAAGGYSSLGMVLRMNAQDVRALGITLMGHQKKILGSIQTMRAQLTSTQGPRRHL
Sequence of Cyclin-dependent kinase 3 (Homo sapiens) (Q00526 whole entry, looked up, the tested form may be a part): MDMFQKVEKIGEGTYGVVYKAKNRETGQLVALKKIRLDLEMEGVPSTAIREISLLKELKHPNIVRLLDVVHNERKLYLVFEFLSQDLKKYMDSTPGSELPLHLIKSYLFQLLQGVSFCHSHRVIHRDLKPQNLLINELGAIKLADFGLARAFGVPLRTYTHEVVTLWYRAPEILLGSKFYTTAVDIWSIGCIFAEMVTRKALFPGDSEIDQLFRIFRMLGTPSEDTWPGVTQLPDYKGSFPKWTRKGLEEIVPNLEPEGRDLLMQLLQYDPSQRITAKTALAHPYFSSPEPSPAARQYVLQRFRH

Question: Which Activity [1] does the source give for `CC(C)N1C(=O)C(NCCCN(C)C)=C(c2cn(C)c3ccccc23)C1=O.Cl` here?
Answer: 99%

Question: And the Activity [2]?
Answer: 80%

Question: And the Activity [3]?
Answer: 98%

Question: What about the Activity [4] of the same compound?
Answer: 96%

Question: And the Activity [5]?
Answer: 84%

Question: And the Activity [6]?
Answer: 100%

Question: And the Activity [7]?
Answer: 89%

Question: What about the Activity [8] of the same compound?
Answer: 99%

Question: And the Activity [9]?
Answer: 100%

Question: What about the Activity [10] of the same compound?
Answer: 98%

Question: What about the Activity [11] of the same compound?
Answer: 86%

Question: What about the Activity [12] of the same compound?
Answer: 100%

Question: And the Activity [13]?
Answer: 89%

Question: And the Activity [14]?
Answer: 94%

Question: What about the Activity [15] of the same compound?
Answer: 100%

Question: And the Activity [16]?
Answer: 99%

Question: What about the Activity [17] of the same compound?
Answer: 74%

Question: And the Activity [18]?
Answer: 93%

Question: What about the Activity [19] of the same compound?
Answer: 87%

Question: And the Activity [20]?
Answer: 100%

Question: What about the Activity [21] of the same compound?
Answer: 75%

Question: And the Activity [22]?
Answer: 100%

Question: And the Activity [23]?
Answer: 80%

Question: What about the Activity [24] of the same compound?
Answer: 73%
